pIC50: −log10 of the molar value. Like-named read-outs stand apart in the source and are kept apart here.
Legend:
[1] = tested on: human melanoma cell lines; test: response to palbociclib treatment in 48 melanoma cell lines; format: cell-based
Text: Melanoma, a malignancy originating in pigment-producing melanocytes, is generally resistant to conventional treatments such as radiotherapy or chemotherapy. Molecular targeted therapeutics against BRAF and MEK have shown marked efficacy for patients with metastatic melanoma. However these targeted therapies have a limited duration of response. […] Our main goal in this study was to evaluate the therapeutic potential of palbociclib in a large panel of human melanoma cell lines to identify potential biomarkers of sensitivity and resistance. Material and Methods: We evaluated the response palbociclib treatment in 48 melanoma cell lines. A comprehensive biomarker screen was performed using mutation and gene expression (Agilent) data. The mechanism of action of the drug, phospho-Rb and senescence, was investigated by western blot (WB) analysis. Effects on the cell cycle and apoptosis were study by flow cytometry.

[2] = tested on: 17 gastric and 27 colon cancer cell lines; test: dose response in gastric and colon cancer cell line panels; format: cell-based; settings: Homo sapiens; 14 of the 44 gastric and colon cancer cell lines tested; read-out: anti-proliferative activity (concentration)
Procedure: Methods: Panels of 17 gastric and 27 colon cancer cell lines were exposed in vitro to palbociclib over various concentrations to generate dose response curves. Analysis of variance (ANOVA) was used to identify differentially expressed genes between sensitive and resistant cell lines. Genes identified by ANOVA and effects of palbociclib on pRB were analyzed via western blot.

[3] = tested on: colon cancer; settings: patients; cited from earlier work

| pIC50 ([1]; 48 melanoma cell lines, read-out: IC50, lower end of range across melanoma cell lines) | pIC50 ([1]; 48 melanoma cell lines, read-out: IC50, upper end of range across melanoma cell lines) | pIC50 ([1]; subset (14/48) of melanoma cell lines, clinically achievable concentrations, read-out: IC50 of cell lines classified as sensitive) | pIC50 [2] | Structure (SMILES) | clinical benefit [3] |
| --- | --- | --- | --- | --- | --- |
| 7.55 | < 6.00 | > 6.82 | > 6.82 | CC(=O)c1c(C)c2cnc(Nc3ccc(N4CCNCC4)cn3)nc2n(C2CCCC2)c1=O [palbociclib] |  |
|  |  |  |  | CCN1CCN(Cc2ccc(Nc3ncc(F)c(-c4cc(F)c5nc(C)n(C(C)C)c5c4)n3)nc2)CC1 [LY2835219] | beneficial in colon cancer |

— patent US20190292605A1, “Biomarkers of Response to Cyclin D-CDK4/6 Targeted Therapies in Cancer” (The Regents of the University of California, priority 2014, published 2019)
